This note sets out measurements from US20090226500A1, “SUTURES AND ANTI-SCARRING AGENTS” (Angiotech Pharmaceuticals, Inc, priority 2006, published 2009).

pIC50: −log10 of the molar value. Like-named read-outs stand apart in the source and are kept apart here.

Assay [1] has as its system MCP-1 production by THP-1 cells. The assay is described as follows: MCP-1 production by macrophages. It counts as cell-based, human. Particulars: read-out: IC50 MCP-1 production. On the procedure: (§1) The human macrophage cell line, THP-1 was plated in a 12 well plate such that each well contains 1×10^6 cells in 2 ml of media containing 10% FCS. Opsonized zymosan was prepared by resuspending 20 mg of zymosan A in 2 ml of ddH2O and homogenizing until a uniform suspension was obtained. Homogenized zymosan was pelleted at 250 g and resuspended in 4 ml of human serum for a final concentration of 5 mg/ml and incubated in a 37° C. water bath for 20 minutes to enable opsonization. Geldanamycin was prepared in DMSO at a concentration of 10^−2 M and serially diluted 10-fold to give a range of stock concentrations (10^−8 M to 10^−2 M).
THP-1 cells were stimulated to produce MCP-1 by the addition of 1 mg/ml opsonized zymosan. […] was added to THP-1 cells by directly adding DMSO stock solutions, prepared earlier, at a 1/1000 dilution, to each well. Each drug concentration was tested in triplicate wells. Plates were incubated at 37° C. for 24 hours.
After a 24-hour stimulation, supernatants were collected to quantify MCP-1 production. MCP-1 concentrations in the supernatants were determined by ELISA using recombinant human MCP-1 to obtain a standard curve. A 96-well MaxiSorb plate was coated with 100 μL of anti-human MCP-1 Capture Antibody diluted in Coating Buffer (0.1M sodium carbonate pH 9.5) overnight at 4° C. The dilution of Capture Antibody used was lot-specific and was determined empirically. Capture antibody was then aspirated and the plate washed 3 times with Wash Buffer (PBS, 0.05% TWEEN-20). Plates were blocked for 1 hour at room temperature with 200 μL/well of Assay Diluent (PBS, 10% FCS pH 7.0). After blocking, plates were washed 3 times with Wash Buffer. […] Sample supernatants and standards were assayed in triplicate and were incubated at room temperature for 2 hours after addition to the plate coated with Capture Antibody. The plates were washed 5 times and incubated with 100 μL of Working Detector (biotinylated anti-human MCP-1 detection antibody+avidin-HRP) for 1 hour at room temperature. Following this incubation, the plates were washed 7 times and 100 μL of Substrate Solution (tetramethylbenzidine, H2O2) was added to plates and incubated for 30 minutes at room temperature. […] Mean absorbance was determined from triplicate data readings and the mean background was subtracted. MCP-1 concentration values were obtained from the standard curve.

In assay [2] the test system is TNFα production by THP-1 cells. Put plainly: TNF-alpha production by macrophages. The class given is cell-based, human. Particulars: read-out: IC50 TNFα production. On the procedure:
The human macrophage cell line, THP-1 was plated in a 12-well plate such that each well contains 1×10^6 cells in 2 ml of media containing 10% FCS. Opsonized zymosan was prepared by resuspending 20 mg of zymosan A in 2 ml of ddH2O and homogenizing until a uniform suspension was obtained. Homogenized zymosan was pelleted at 250 g and resuspended in 4 ml of human serum for a final concentration of 5 mg/ml and incubated in a 37° C. water bath for 20 minutes to enable opsonization.
THP-1 cells were stimulated to produce TNFα by the addition of 1 mg/ml opsonized zymosan. […] Each drug concentration was tested in triplicate wells. Plates were incubated at 37° C. for 24 hours.
After a 24-hour stimulation, supernatants were collected to quantify TNFα production. TNFα concentrations in the supernatants were determined by ELISA using recombinant human TNFα to obtain a standard curve A 96-well MaxiSorb plate was coated with 100 μL of anti-human TNFα Capture Antibody diluted in Coating Buffer (0.1M sodium carbonate pH 9 5) overnight at 4° C. The dilution of Capture Antibody used was lot-specific and was determined empirically. Capture antibody was then aspirated and the plate washed 3 times with Wash Buffer (PBS, 0.05% TWEEN-20) Plates were blocked for 1 hour at room temperature with 200 μL/well of Assay Diluent (PBS, 10% FCS pH 7.0). After blocking, plates were washed 3 times with Wash Buffer. […] Sample supernatants and standards were assayed in triplicate and were incubated at room temperature for 2 hours after addition to the plate coated with Capture Antibody. The plates were washed 5 times and incubated with 100 μL of Working Detector (biotinylated anti-human TNFα detection antibody+avidin-HRP) for 1 hour at room temperature. Following this incubation, the plates were washed 7 times and 100 μL of Substrate Solution (tetramethylbenzidine, H2O2) was added to plates and incubated for 30 minutes at room temperature. […] Mean absorbance was determined from triplicate data readings and the mean background was subtracted. TNFα concentration values were obtained from the standard curve.

In assay [3] the test system is IL-8 production by THP-1 cells. Put plainly: IL-8 production by macrophages. The class given is cell-based, human. To be noted: Homo sapiens; THP-1 cells stimulated with opsonized zymosan, 24 hours; read-out: IC50 IL-8 production. How it is done:
as §1, with “g,” for “g and”, “mg/ml,” for “mg/ml”
THP-1 cells were stimulated to produce IL-8 by the addition of 1 mg/ml opsonized zymosan. Geldanamycin was added to THP-1 cells by directly adding DMSO stock solutions, prepared earlier, at a 1/1000 dilution, to each well. Each drug concentration was tested in triplicate wells. Plates were incubated at 37° C. for 24 hours.
After a 24-hour stimulation, supernatants were collected to quantify IL-8 production. IL-8 concentrations in the supernatants were determined by ELISA using recombinant human IL-8 to obtain a standard curve. A 96-well MAXISORB plate was coated with 100 μL of anti-human IL-8 Capture Antibody diluted in Coating Buffer (0.1M sodium carbonate pH 9.5) overnight at 4° C. The dilution of Capture Antibody used was lot-specific and was determined empirically. Capture antibody was then aspirated and the plate washed 3 times with Wash Buffer (PBS, 0.05% TWEEN-20). Plates were blocked for 1 hour at room temperature with 200 μL/well of Assay Diluent (PBS, 10% FCS pH 7.0). After blocking, plates were washed 3 times with Wash Buffer. Standards and sample dilutions were prepared as follows: (a) sample supernatants were diluted 1/100 and 1/1000; (b) recombinant human IL-8 was prepared at 200 pg/ml and serially diluted to yield as standard curve of 3.1 pg/ml to 200 pg/ml Sample supernatants and standards were assayed in triplicate and were incubated at room temperature for 2 hours after addition to the plate coated with Capture Antibody The plates were washed 5 times and incubated with 100 μL of Working Detector (biotinylated anti-human IL-8 detection antibody+avidin-HRP) for 1 hour at room temperature. Following this incubation, the plates were washed 7 times and 100 μL of Substrate Solution (Tetramethylbenzidine, H2O2) was added to plates and incubated for 30 minutes at room temperature. Stop Solution (2 NH2SO4) was then added to the wells and a yellow color reaction was read at 450 nm with A correction at 570 nm. Mean absorbance was determined from triplicate data readings and the mean background was subtracted. IL-8 concentration values were obtained from the standard curve. […] The IC50 values for the following additional compounds were determined using this assay: IC50 (nM): 17-AAG, 56; mycophenolic acid, 549; resveratrol, 507; rapamycin, 4; 41; SP600125, 344; halofuginone, 641; D-mannose-6-phosphate, 220; epirubicin hydrochloride, 654; topotemay, 257; mithramycin, 33; daunorubicin, 421; celastrol, 490; chromomycin A3, 36

For another assay, the system named is Smooth muscle cells. Put plainly: Proliferation of smooth muscle cells. It counts as cell-based. Particulars: read-out: IC50 proliferation of smooth muscle cells. On the procedure: Smooth muscle cells at 70-90% confluency were trypsinized, replated at 600 cells/well in media in 96-well plates and allowed to attachment overnight. Paclitaxel was prepared in DMSO at a concentration of 10^−2 M and diluted 10-fold to give a range of stock concentrations (10^−8 M to 10^−2 M). […] Each drug concentration was tested in triplicate wells. Plates containing cells and paclitaxel were incubated at 37° C. for 72 hours.
To terminate the assay, the media was removed by gentle aspiration A 1/400 dilution of CYQUANT 400×GR dye indicator (Molecular Probes; Eugene, Oreg.) was added to 1× Cell Lysis buffer, and 200 μL of the mixture was added to the wells of the plate. Plates were incubated at room temperature, protected from light for 3-5 minutes.

A further assay has as its system human fibroblasts. Put plainly: Cell proliferation of fibroblasts. The class given is cell-based. To be noted: Fibroblast, 72 hours, CYQUANT, read-out: IC50 cell proliferation of fibroblasts. The gist of the method: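 Human fibroblasts plated at 600 cells/well, attached overnight, then exposed to drug in triplicate for 72 h at 37°C. Cell content read with CYQUANT GR dye in lysis buffer after 3-5 min at room temperature.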

[4] abbreviates: THP-1 cells stimulated with opsonized zymosan, 24 hours.
Setting [5] is: Homo sapiens, THP-1 cells stimulated with opsonized zymosan, 24 hours.

Turning to `C=C1/C(=C\C=C2/CCC[C@]3(C)[C@@H]([C@H](C)CCCC(C)(C)O)CC[C@@H]23)C[C@@H](O)C[C@@H]1O` [1-α-25 dihydroxy vitamin D3], in assay [1] (setting [4]), the pIC50 is 9.00.

As to `CCCCC/C=C/C=C1/C(=O)C=C[C@@H]1C/C=C\CCCC(=O)O` [15-deoxy prostaglandin J2, 15-Deoxy-D12,14-prostaglandin J2], the pIC50 in assay [2] (setting [4]) was 6.13; in assay [1] (setting [4]) it was 6.14.

Regarding `CC1(C)CN[Se]c2ccccc21` [BXT-51072], the pIC50 in assay [1] (setting [4]) was 6.17.

Regarding `Cc1ccc(S(=O)(=O)/C=C/C#N)cc1` [Bay 11-7082], the pIC50 in assay [2] (setting [4]) is 6.09.

Turning to `O=C(O)CCCCN(CCc1ccccc1OCc1ccc(CCc2ccccc2)cc1)Cc1ccc(C(=O)O)cc1` [Bay 58-2667], the pIC50 in assay [1] (setting [4]) is 6.67.

Turning to `O=C[C@@H](O)[C@@H](O)[C@H](O)[C@H](O)COP(=O)(O)O` [D-mannose-6-phosphate], in assay [3], the pIC50 is 6.66.

For `COc1c(C)c2c(c(O)c1C/C=C(\C)CCC(=O)OCCN1CCOCC1)C(=O)OC2` [Mycophenolate mofetil], the pIC50 in assay [2] (setting [5]) is 6.10; in assay [1] (setting [5]), 6.66; in the assay with Smooth muscle cells (72 hours, CYQUANT), 6.33; in the assay with human fibroblasts, 5.92 to 6.22.

Turning to `Fc1ccc(-c2nc3n(c2-c2ccncc2)CCS3)cc1` [SKF 86002], the pIC50 in assay [2] (setting [5]) was 6.08.

As to `Oc1c2ccccc2c2c3c(cccc13)N=N2` [SP600125], the values for the pIC50 (in assay [3]; in the assay on human fibroblasts) were 6.46 and 5.00 to 5.92, respectively.

Turning to `CN(C)CCCN1c2ccccc2Sc2ccc(Cl)cc21` [chlorpromazine], the pIC50 in assay [2] (setting [5]) was 8.22; in assay [1] (setting [5]) it was 10.96.

In the case of `COC1=C2C[C@@H](C)C[C@H](OC)[C@H](O)[C@@H](C)/C=C(\C)[C@H](OC(N)=O)[C@@H](OC)/C=C\C=C(/C)C(=O)NC(=CC1=O)C2=O` [geldanamycin], the pIC50 was 7.85 in assay [2] (setting [5]); 8.30 with Smooth muscle cells (72 hours, CYQUANT); 8.00 to 10.00 in the assay with human fibroblasts.

Take `Nc1ccn([C@@H]2O[C@H](CO)[C@@H](O)C2(F)F)c(=O)n1` [gemcitabine]: the pIC50 was 7.30 in assay [1] (setting [4]) and 8.05 in the assay with Smooth muscle cells (72 hours, CYQUANT).

With `COc1cc([C@@H]2c3cc4c(cc3[C@H](O)[C@H]3COC(=O)[C@H]23)OCO4)cc(OC)c1OC` [podophyllotoxin], the pIC50 was 7.12 in assay [2] (Homo sapiens, THP-1, 24 h); 7.55 in assay [1] (Homo sapiens, THP-1, 24 h); 7.68 with Smooth muscle cells (72 h); 6.22 to 7.00 in the assay on human fibroblasts.

As to `COc1ccc(C[C@H](N)C(=O)N[C@H]2[C@@H](O)[C@H](n3cnc4c(N(C)C)ncnc43)O[C@@H]2CO)cc1` [puromycin], the pIC50 in assay [1] (setting [4]) was 6.79; in the assay with Smooth muscle cells (72 hours, CYQUANT), 6.42.

Regarding `Oc1ccc(C=Cc2cc(O)cc(O)c2)cc1` [resveratrol], the pIC50 in assay [3] was 6.29.

With `CC[C@]1(O)C[C@@H]2CN(CCc3c([nH]c4ccccc34)[C@@](C(=O)OC)(c3cc4c(cc3OC)N(C)[C@H]3[C@@](O)(C(=O)OC)[C@H](OC(C)=O)[C@]5(CC)C=CCN6CC[C@]43[C@@H]65)C2)C1` [vinblastine], the pIC50 in assay [2] (setting [4]) was 7.19; in assay [1] (setting [4]), 7.72; in the assay with Smooth muscle cells (72 hours, CYQUANT), 8.52.

Regarding `CC[C@]1(O)C[C@H]2CN(CCc3c([nH]c4ccccc34)[C@@](C(=O)OC)(c3cc4c(cc3OC)N(C=O)[C@H]3[C@@](O)(C(=O)OC)[C@H](OC(C)=O)[C@]5(CC)C=CCN6CC[C@]43[C@@H]65)C2)C1` [vincristine], the pIC50 in assay [1] (setting [4]) is 7.80; with Smooth muscle cells (72 hours, CYQUANT), 8.05.

For the compound `CCC1=C[C@@H]2CN(C1)Cc1c([nH]c3ccccc13)[C@@](C(=O)OC)(c1cc3c(cc1OC)N(C)[C@H]1[C@@](O)(C(=O)OC)[C@H](OC(C)=O)[C@]4(CC)C=CCN5CC[C@]31[C@@H]54)C2` [vinorelbine], the pIC50 in assay [2] (setting [4]) was 6.22; in assay [1] (setting [4]) it was 7.16; in the assay on Smooth muscle cells (72 hours, CYQUANT) it was 7.82.
